Consider ten compounds from PMC10385824, “Antiproliferative and Tubulin-Destabilising Effects of 3-(Prop-1-en-2-yl)azetidin-2-Ones and Related Compounds in MCF-7 and MDA-MB-231 Breast Cancer Cells” (Pharmaceuticals, 2023).

Molecules are shown by their SMILES. Where two headings read alike, the source gives them in different places.

Data set [1] relates to MCF-7 human breast cancer cells.
Data set [2] shares this test system. The experiment in a line: cells.
The test system of data set [3] is MDA-MB-231 human breast cancer cells. The experiment in a line: Alamar Blue cell viability (antiproliferative) assay. It counts as cell-based. The following applies: 72 h, eight concentrations 0.001-50 μM, mean ± SEM, read-out: Antiproliferative Activity IC50.
Setting [4] is: MCF7, 72 h, read-out: Antiproliferative Activity IC50, MCF-7, 72 h, eight concentrations 1–50 μM, mean ± SEM, Table 2.

`C=C(C)C1C(=O)N(c2cc(OC)c(OC)c(OC)c2)C1c1ccc(Cl)cc1` (stereo not drawn) [9b, 4-(4-Chlorophenyl)-1-(3,4,5-trimethoxyphenyl)-3-(prop-1-en-2-yl)azetidine-2-one]: the melting point (usually the temperature of the solid-liquid transition) is 137 to 138 °C. Also, the “antiproliferative activity in words” value in data set [1] (MCF-7) is “sub-micromolar”. Further, in data set [2] (setting [4]), the IC50 was 630 ± 70 nM.

As for `C=C(C)C1C(=O)N(c2cc(OC)c(OC)c(OC)c2)C1c1ccc(Br)cc1` (stereo not drawn) [9c, 4-(4-Bromophenyl)-1-(3,4,5-trimethoxyphenyl)-3-(prop-1-en-2-yl)azetidine-2-one], the melting point lay in the range of 130 to 131 °C. Besides, in data set [1] (MCF-7), the “antiproliferative activity in words” value is on record as “sub-micromolar”.

For the compound `C=C(C)C1C(=O)N(c2cc(OC)c(OC)c(OC)c2)C1c1ccc(N(C)C)cc1` (stereo not drawn) [9e, 4-(4-Dimethylaminophenyl)-1-(3,4,5-trimethoxyphenyl)-3-(prop-1-en-2-yl)azetidine-2-one], in data set [1] (MCF-7), the “antiproliferative activity in words” value is on record as “sub-micromolar”. Also, the IC50 in data set [2] (setting [4]) is 5950 ± 920 nM.

On to `C=C(C)C1C(=O)N(c2cc(OC)c(OC)c(OC)c2)C1c1ccc(C)cc1` (stereo not drawn) [9g, 4-p-Tolyl-1-(3,4,5-trimethoxyphenyl)-3-(prop-1-en-2-yl)azetidine-2-one], for which the melting point was 102 to 104 °C. In addition, the IC50 in data set [3] came to 246 ± 17 nM. Besides, the “antiproliferative activity in words” value in data set [1] (MCF-7) was “sub-micromolar”.

Regarding `C=C(C)C1C(=O)N(c2cc(OC)c(OC)c(OC)c2)C1c1ccc2ccccc2c1` (stereo not drawn) [9n, 4-Naphthalen-2-yl-1-(3,4,5-trimethoxyphenyl)-3-(prop-1-en-2-yl)azetidin-2-one], the melting point lay within 123 to 124 °C. Also, the IC50 in data set [3] came to 529 ± 80 nM. In data set [1] (MCF-7 IC50 ratio), the “fold more potent than the 1-naphthyl compound 9m” value was 58 fold. Moreover, in data set [2] (setting [4]), the IC50 was 78100 ± 5470 nM. In data set [2] (MCF7, MCF-7), this compound showed an IC50 of 139 nM.

`C=C(C)C1C(=O)N(c2cc(OC)c(OC)c(OC)c2)C1c1ccc(SC)cc1` (stereo not drawn) [9o, 4-(4-(Methylthio)phenyl)-3-(prop-1-en-2-yl)-1-(3,4,5-trimethoxyphenyl)azetidin-2-one]: the melting point was 99 to 100 °C. Further, the “antiproliferative activity in words” value in data set [1] (MCF-7) is “sub-micromolar”. Moreover, in data set [2] (setting [4]), the IC50 is 272000 ± 26400 nM.

`C=C(C)C1C(=O)N(c2ccc(SC)cc2)C1c1cc(OC)c(OC)c(OC)c1` (stereo not drawn) [9t, 1-(4-(Methylthio)phenyl)-3-(prop-1-en-2-yl)-4-(3,4,5-trimethoxyphenyl)azetidin-2-one] registered a melting point of 113 to 115 °C. In data set [1] (MCF-7), the “antiproliferative activity in words” value is “minimal”. The IC50 in data set [2] (setting [4]) was found to be 131 ± 40 nM.

For `C=C(C)C1C(=O)N(c2ccc(OCC)cc2)C1c1cc(OC)c(OC)c(OC)c1` (stereo not drawn) [9u, 1-(4-Ethoxyphenyl)-3-(prop-1-en-2-yl)-4-(3,4,5-trimethoxyphenyl)azetidin-2-one], the melting point fell in the range of 106 to 108 °C. For the same compound, in data set [1] (MCF-7), the “antiproliferative activity in words” value was “minimal”.

`C=C(C)C1C(=O)N(c2ccc(OC)cc2)C1c1cc(OC)c(OC)c(OC)c1` (stereo not drawn) [9v, 1-(4-Methoxyphenyl)-3-(prop-1-en-2-yl)-4-(3,4,5-trimethoxyphenyl)azetidin-2-one] had a melting point of 128 to 130 °C. The “antiproliferative activity in words” value in data set [1] (MCF-7) is given as “minimal”. For the same compound, the IC50 in data set [2] (setting [4]) was 1160 ± 120 nM.

As to `COC(=O)C1=C(C(=O)OC)C(C2C(=O)N(c3cc(OC)c(OC)c(OC)c3)C2c2cccc3ccccc23)CC=C1` (stereo not drawn) [22b, Dimethyl-6-(1-(3,4,5-trimethoxyphenyl)-2-(naphthalen-1-yl)-4-oxoazetidin-3-yl)cyclohexa-1,3-diene-1,2-dicarboxylate], the IC50 in data set [1] (read-out: Antiproliferative Activity IC50, MCF-7, 72 h, eight concentrations (0.001–50 mM [sic]), mean ± SEM, Table 5) was found to be 9690 ± 1020 nM.
